This is an account of results in ChEMBL document CHEMBL1159335, “Structures of new cyclic diarylheptanoids and inhibitors of nitric oxide production from Japanese folk medicine Acer nikoense” (J Nat Prod, 2003).

The nature of data set [1]: Cytotoxicity against ddY mouse macrophages after 20 hrs by MTT assay. The note with it: macrophage. Type of data set: cell-based.
In data set [2] the test system is Macrophage. As to the kind of experiment: Inhibition of LPS-induced NO production in ddY mouse peritoneal macrophages at 10 uM by Griess reagent method. Format: functional. (In general: The Griess reaction detects nitrite, a stable product of nitric oxide.)
The test system of data set [3] is Macrophage. As to the kind of experiment: Inhibition of LPS-induced NO production in ddY mouse peritoneal macrophages at 30 uM by Griess reagent method. Type of data set: functional.
The subject of data set [4] is Macrophage. As to the kind of experiment: Inhibition of LPS-induced NO production in ddY mouse peritoneal macrophages at 1 uM by Griess reagent method. Type of data set: functional.
Data set [5] concerns Macrophage. As to the kind of experiment: Inhibition of LPS-induced NO production in ddY mouse peritoneal macrophages at 100 uM by Griess reagent method. Type of data set: functional.
The subject of data set [6] is Macrophage. As to the kind of experiment: Inhibition of LPS-induced NO production in ddY mouse peritoneal macrophages at 3 uM by Griess reagent method. Type of data set: functional.
Data set [7] has as its system Macrophage. As to the kind of experiment: Inhibition of LPS-induced NO production in ddY mouse peritoneal macrophages by Griess reagent method. Type of data set: functional, cell-based.

`Oc1ccc(CCCC[C@@H](O)CCc2ccc(O)cc2)cc1`: the Activity result in data set [1] is “Non-toxic”. For the same compound, the inhibition at 10 µM with Macrophage [2] is -1.1%. The inhibition at 30 µM in the data set on Macrophage [3] is 10.7%. Further, the inhibition at 1 µM with Macrophage [4] is -1.3%. The inhibition at 100 µM in the data set with Macrophage [5] worked out at 67.2%. Further, the inhibition at 3 µM with Macrophage [6] stood at 1.3%. For the same compound, in the data set on Macrophage [7], inhibition was half-maximal at 73 µM (IC50).

Turning to `Oc1ccc2cc1Oc1ccc(cc1)CCCC[C@H](O)CC2` [ACEROGENIN B], in data set [1], the Activity result is listed as “Non-toxic”. Moreover, in the data set on Macrophage [2], the inhibition at 10 µM is -0.2%. Moreover, the inhibition at 30 µM with Macrophage [3] is 17.6%. Moreover, the inhibition at 1 µM with Macrophage [4] came to 1.9%. In addition, the inhibition at 100 µM in the data set on Macrophage [5] is 54.1%. In the data set with Macrophage [6], the inhibition at 3 µM is -0.5%. This compound also yielded an IC50 with Macrophage [7] of 88 µM.

For the compound `O=C1CCCCc2ccc(O)c(c2)-c2cc(ccc2O)CC1` [ACEROGENIN E], in data set [1], the Activity result is “Non-toxic”. In addition, the inhibition at 10 µM in the data set with Macrophage [2] was found to be 13.6%. In addition, in the data set with Macrophage [3], the inhibition at 30 µM amounted to 59.4%. Moreover, the inhibition at 1 µM in the data set with Macrophage [4] is 0.1%. In addition, the inhibition at 100 µM in the data set with Macrophage [5] is 81.2%. Moreover, the inhibition at 3 µM in the data set on Macrophage [6] was determined as 3.3%. The compound further gave an IC50 with Macrophage [7] of 24 µM.

Consider `Oc1ccc2cc1-c1cc(ccc1O)CCC(O)CCCC2` (stereo not given) [ACEROGENIN K], for which, in data set [1], the Activity entry was “Non-toxic”. Besides, in the data set on Macrophage [2], the inhibition at 10 µM is 24.3%. In addition, the inhibition at 30 µM in the data set on Macrophage [3] worked out at 56.6%. Also, in the data set on Macrophage [4], the inhibition at 1 µM came out at 6.6%. The inhibition at 100 µM in the data set on Macrophage [5] was 91.3%. The inhibition at 3 µM in the data set with Macrophage [6] turned out to be 2.1%. The compound further came in with a concentration for half-maximal inhibition (IC50) with Macrophage [7] of 25 µM.

With `Oc1ccc2cc1Oc1ccc(cc1)CC[C@H](O)CCCC2` [ACEROGENIN A], in data set [1], the Activity entry is on record as “Non-toxic”. Further, in the data set with Macrophage [2], the inhibition at 10 µM was 11.6%. Further, in the data set with Macrophage [3], the inhibition at 30 µM amounted to 22.2%. In addition, the inhibition at 1 µM in the data set with Macrophage [4] was 6.7%. Also, the inhibition at 100 µM with Macrophage [5] amounted to 61.4%. The inhibition at 3 µM with Macrophage [6] amounted to 5.8%. For the same compound, the half-inhibitory concentration (IC50) with Macrophage [7] was found to be 74 µM.

As usually defined, the inhibition is the change of the read-out against control, counted positive when it falls. What is called IC50 is the concentration that inhibits the measured activity by half. Low values mean higher potency, high ones lower potency.
